The subject of assay [1] is carrageenan-induced paw edema. Put plainly: Carrageenan-induced paw edema studies. In kind it is in vivo, Albino rats. To be noted: for percent inhibition of carrageenan-induced paw edema: right after the carrageenan injection, p < 0.05. As to the method: (§1) Albino rats (180–200 g) of either sex were used in all experiments. The animals were kept under standard laboratory conditions (25 °C and light/dark cycles, i.e., 12/12 h) and were fed with standard food and water ad libitum.
Albino rats of either sex (180–200 g) were used to assess anti-inflammatory activity. The animals were randomly divided into five groups with each group having six albino rats (n = 6). Pedal inflammations in albino rats of either sex were produced according to the method described by Winter et al. (1962). Group 1 was treated with normal saline (5 ml/ kg) and group 2 was treated with oxyphenylbutazone (10 mg/ kg, i.p.), while groups 3–5 were treated with compounds 1–5 (10 mg/ kg and 20 mg/ kg, i.p.). After 30 min, 0.05 ml 1% carrageenan sodium salt (BDH) was subcutaneously injected into the plantar aponeurosis tissue of the right hind paw of each rat. The inflammation was measured using a plethysmometer (Apelex, France) immediately after +3 h of carrageenan injection. The anti-inflammatory activity was calculated using the following formula: 100(1−a−x/b−y), where “b” is the mean paw volume of control rats after carrageenan injection and “y” before the injection; whereas “x” is the mean paw volume of treated rats before injection and “a” is the mean paw volume after carrageenan injection.
(The carrageenan paw model is a standard test of acute inflammation.)

Another assay deals with yeast-induced pyrexia. Kind of assay: Anti-pyretic studies, brewer's yeast-induced pyrexia. In kind it is in vivo, Albino rats. To be noted: for activity against yeast-induced hyperthermia: 10 and 20 mg/kg s.c., 30, 60, and 120 min. As to the method: as §1
Albino rats of either sex weighing 180–200 g were used for anti-pyretic studies. The animals were divided into five groups with each group having six albino rats (n = 6). All the animals were given free access to food and water. Basal rectal temperature was measured using a digital clinical thermometer before injecting the yeast. Hyperthermia was induced in rats by sub-cutaneous (s.c.) injection of 20% aqueous suspension of brewer’s yeast (20 ml/ kg) in the back below the nape of the neck ([Loux et al., 1972]). Group 1 was treated with normal saline as a control, and group 2 was treated with indomethacin (10 mg/kg, s. c) as the standard drug, while the remaining groups 3–5 were treated with compound 1–5 (10 mg/ kg and 20 mg/ kg, s. c). After 24 h from the yeast injection, the rise in the rectal temperature was recorded at regular intervals of 30, 60, and 120 min after drug administration.

In assay [2] the test system is promastigotes of Leishmania tropica (clinical field isolate KWH23). Put plainly: Anti-leishmanial assay on promastigotes. In kind it is cell-based. To be noted: for anti-leishmanial properties: at all four tested concentrations, 48 h. As to the method: The initial culture was raised in the 5 ml M-199 medium supplemented with 10% heat-inactivated fetal bovine serum (HI-FBS), 100 μg/ ml penicillin, 100 μg/ ml streptomycin, 50 μg/ ml kanamycin, and 5 μg/ ml of hemin in a 15-ml culture flask. The culture flask was kept in an incubator at 26°C, and the medium was changed every third day. The cultures were given enough time (10–14 days) to fully develop and promastigotes to reach the metacyclic stage. The culture was then sub-passaged by pouring the contents of the flask containing the promastigotes into a centrifuge tube. The tubes were then spun in a Sigma centrifuge at 2000 rpm for 12 min. After spinning, the medium was carefully poured off leaving the pellet only. This pellet was re-suspended in the 2–4 ml growth medium, and new cultures were established. The primary culture was used for sensitivity assays, and additional cultures were cryopreserved in liquid nitrogen at −196°C for future use.
The culture of L. tropica clinical field isolate KWH23 was established from already cryopreserved collection in the Department of Zoology, University of Peshawar. The initial culture was raised in the 5 ml M-199 medium supplemented with 10% heat-inactivated fetal bovine serum (HI-FBS), 100 μg/ ml penicillin, 100 μg/ ml streptomycin, 50 μg/ ml kanamycin, and 5 μg/ ml of hemin in a 15-ml culture flask. Two experiments were run at a time under the same conditions in 96-well flat-bottom plates. The promastigotes were counted in culture suspension by using the improved Neubauer hemocytometer. From the viable promastigotes bulk culture (4 × 10^6/ ml), 1 × 10^5 promastigotes/well in the 200 µL fresh M-199 medium were seeded in 96-well plates. Four different concentrations for each compound were applied, and one row of 12 wells was kept as a control with the growth medium only. The 96-well plates were incubated at 26°C for 48 h. After 48 h, the number of promastigotes in each well was counted microscopically using the improved Neubauer hemocytometer.

From paper PMC8719521, “Spectral, Anti-Inflammatory, Anti-Pyretic, Leishmanicidal, and Molecular Docking Studies, Against Selected Protein Targets, of a New Bisbenzylisoquinoline Alkaloid” (Frontiers in Chemistry, 2021) come the findings set out here.

Take `COc1cc2c3cc1Oc1c(O)ccc(c1O)CC1c4c(cc(OC)c(OC)c4Oc4ccc(cc4)CC3N(C)CC2)CCN1C` (centres unmarked) [Compound 1, chondrofolinol]: the results for the “percent inhibition of carrageenan-induced paw edema” value in assay [1] (10 mg/kg of chondrofolinol) and in assay [1] (20 mg/kg of chondrofolinol) were 32.12% and 53.34%, respectively. Further, in assay [1] (10 and 20 mg/kg of body weight), the “paw volume in carrageenan-induced paw edema” value is on record as “significantly reduced”. Besides, the “rectal temperature in yeast-induced pyrexia” value in the assay on yeast-induced pyrexia (10 and 20 mg/kg of body weight) is on record as “significantly reduced”. Further, the “activity against yeast-induced hyperthermia” value (“activity” below) in the assay with yeast-induced pyrexia is recorded as “significantly active”. For the same molecule, the anti-pyretic potential entry in the assay with yeast-induced pyrexia (at both concentrations (10 and 20 mg/kg)) was “milder anti-pyretic potential”. Moreover, the “inhibition of the promastigotes of Leishmania tropica” value in assay [2] (48 h incubation) was roughly 100%. For the same molecule, in assay [2], the anti-leishmanial properties result is recorded as “strong anti-leishmanial properties”.

For `COc1ccc2cc3[n+](cc2c1OC)CCc1cc2c(cc1-3)OCO2` [Compound 2, berberine], the “activity” value in the assay on yeast-induced pyrexia is listed as “significantly active”. For the same molecule, the anti-leishmanial properties result in assay [2] was “strong anti-leishmanial properties”.

As to `COc1cc2c(cc1OC)-c1cc3ccc(OC)c(OC)c3c[n+]1CC2` [Compound 4, palmatine], the “activity” value in the assay with yeast-induced pyrexia is on record as “significantly active”. In addition, in assay [2], the anti-leishmanial properties result was “strong anti-leishmanial properties”.

Take `COc1ccc2c(c1OC)C(C(Cl)(Cl)Cl)N1CCc3cc4c(cc3C1=C2)OCO4` (centres unmarked) [Compound 5, 8-trichloromethyldihydroberberine]: the “activity” value with yeast-induced pyrexia is “significantly active”. In addition, in assay [2], the anti-leishmanial properties result is given as “strong anti-leishmanial properties”.
